The target of this assay is T1, c-MET (HGFR) (Homo sapiens, UniProt P08581).
T1 construct: purchased Upstate 14-526
The experiment in a line: HGFR Continuous-Coupled Spectrophotometric Assay. As to conditions: Met-2 substrate peptide, 50 nM HGFR, 37° C. In kind it is biochemical. An excerpt:
The following in vitro assay may be used to determine the level of activity and effect of the different compounds of the present invention on one or more of the PKs. Similar assays can be designed along the same lines for any PK using techniques well known in the art.
The general procedure is as follows: compounds and kinase assay reagents are introduced into test wells. The assay is initiated by addition of the kinase enzyme. Enzyme inhibitors reduce the measured activity of the enzyme.
In the continuous-coupled spectrophotometric assay the time-dependent production of ADP by the kinase is determined by analysis of the rate of consumption of NADH by measurement of the decrease in absorbance at 340 nm. As the PK produces ADP it is re-converted to ATP by reaction with phosphoenol pyruvate and pyruvate kinase. Pyruvate is also produced in this reaction. Pyruvate is subsequently converted to lactate by reaction with lactate dehydrogenase, which simultaneously converts NADH to NAD.
HGFR Continuous-Coupled Spectrophotometric Assay
This assay analyzes the tyrosine kinase activity of HGFR on the Met-2 substrate peptide, a peptide derived from the activation loop of the HGFR.
• 1. […] Dissolve up in 200 mM HEPES, pH 7.5 at 10 mM stock. • 3. 1 M PEP (phospho-enol-pyruvate) in 200 mM HEPES, pH 7.5 • 4. 100 mM NADH (B-Nicotinamide Adenine Dinucleotide, Reduced Form) in 200 mM HEPES, pH 7.5 • 5. 4 M MgCl2 (Magnesium Chloride) in ddH2O • 6. 1 M DTT (Dithiothreitol) in 200 mM HEPES, pH 7.5 • 7. 15 Units/mL LDH (Lactic Dehydrogenase) • 8. 15 Units/mL PK (Pyruvate Kinase) • 9. 5M NaCl dissolved in ddH2O • 10. Tween-20 (Protein Grade) 10% Solution • 11. 1 M HEPES buffer: (N-[2-Hydroxethyl]piperazine-N-[2-ethanesulfonic acid]) Sodium Salt. Dissolve in ddH2O, adjust pH to 7.5, bring volume to 1 L. Filter at 0.1 μm. • 12. […] 100% DMSO (SIGMA) • 14. […] Beckman DU-650 w/micro cell holders • 18. Beckman 4-position micro cell cuvette Procedure:
Prep Dilution Buffer (DB) for Enzyme (For 30 mL prep) • 1. DB final concentration is 2 mM DTT, 25 mM NaCl2, 5 mM MgCl2, 0.01% Tween-20, and 50 mM HEPES buffer, pH 7.5. • 2. Make up 50 mM HEPES by adding 1.5 mL 1 M HEPES into 28.1 mL of ddH2O. Add rest of the reagents. Into 50 mL conical vial, add 60 μL of 1M DTT, 150 μL 5M NaCl2, 150 μL 1M MgCl2, and 30 μL of 10% Tween-20 to give total volume of 30 mL. • 3. […] Aliquot out DB at 1 mL/tube and label tubes as “DB HGFR” • 5. Note: This can be prepared and stored ahead of time. • 6. Freeze un-used aliquots in microcentrifuge tubes at −20° C. freezer. […] For compound dilution plate, add 4 μL of 10 mM stock into column 1 of plate, and bring volume to 100 μL with 100% DMSO. • 2. Set up the Precision 2000 dilution method. A final concentration of 200 μM compound in 50% DMSO, 100 mM HEPES (1:2 serial dilution). Prep Coupled Enzymatic Buffer:
1. Final concentration in assay:
• 2. For a 10 mL reaction buffer add 10 μL of 1M PEP, 33 μL of 100 mM NADH, 50 μL of 4M MgCl2, 20 μL of 1M DTT, 6 μL of 500 mM ATP, and 500 μL of 10 mM Met-2 peptide into 100 mM HEPES buffer pH 7.5 and vortex/mix. • 3. Add coupling enzymes, LDH and PK, into reaction mix. Mix by gentle inversion. Running Samples
1. Spectrophotometer settings:
• 2. Add 85 μL of CE reaction mix into each well of assay plate. • 3. Add 5 μL of diluted compound into a well of the assay plate. • 4. Add 5 μL of 50% DMSO for negative control into last column of assay plate. • 5. Mix with multi-channel pipettor or orbital shaker. • 6. Pre-incubate for 10 minutes at 37° C. • 7. Add 10 μL of 500 nM HGFR to each well of assay plate; the final HGFR concentration is 50 nM in a total final volume of 100 μL. • 8. Measure activity for 10 minutes at λ=340 nm and 37° C.

Here are results for 13 compounds from patent publication US20060128724A1, “Pyrazole-substituted aminoheteroaryl compounds as protein kinase inhibitors” (AGOURON PHARMACEUTICALS, INC., priority 2004, published 2006).

Like-named read-outs stand apart in the source and are kept apart here.

T1 sequence (P08581 974-1390 limits assumed): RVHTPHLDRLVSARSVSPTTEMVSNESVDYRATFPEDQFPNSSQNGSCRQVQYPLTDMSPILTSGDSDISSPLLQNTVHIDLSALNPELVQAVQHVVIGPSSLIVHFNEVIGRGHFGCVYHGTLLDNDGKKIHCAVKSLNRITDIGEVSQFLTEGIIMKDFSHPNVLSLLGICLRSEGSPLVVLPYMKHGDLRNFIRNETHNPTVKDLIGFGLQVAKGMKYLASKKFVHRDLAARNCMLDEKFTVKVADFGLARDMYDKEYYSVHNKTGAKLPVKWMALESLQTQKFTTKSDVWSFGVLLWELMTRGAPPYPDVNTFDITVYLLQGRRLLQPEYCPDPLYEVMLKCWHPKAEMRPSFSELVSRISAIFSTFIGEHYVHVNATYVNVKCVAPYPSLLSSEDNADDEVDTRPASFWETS

In the case of `CC(Oc1cc(-c2cnn(S(C)(=O)=O)c2)cnc1N)c1c(Cl)ccc(F)c1Cl` (stereo not shown) [Example 71, 3-[1-(2,6-Dichloro-3-fluoro-phenyl)-ethoxy]-5-(1-methanesulfonyl-1H-pyrazol-4-yl)-pyridin-2-ylamine], the Ki (read-out: c-Met Ki) was determined as 0.17 µM.

Regarding `Cc1ccn(-c2cnc(N)c(OC(C)c3c(Cl)ccc(F)c3Cl)c2)n1` (stereo not shown) [Example 77, 3-[1-(2,6-Dichloro-3-fluoro-phenyl)-ethoxy]-5-(3-methyl-pyrazol-1-yl)-pyridin-2-ylamine], the Ki (read-out: c-Met Ki) turned out to be 1.92 µM.

For the compound `CC(Oc1cc(-c2cnn(C(C)(C)C(=O)N3CCNCC3)c2)cnc1N)c1c(Cl)ccc(F)c1Cl` (stereo not shown) [Example 17, 2-(4-{6-Amino-5-[1-(2,6-dichloro-3-fluoro-phenyl)-ethoxy]-pyridin-3-yl}-pyrazol-1-yl)-2-methyl-1-piperazin-1-yl-propan-1-one], for the setting “read-out: c-Met Ki”, the Ki stood at 0.44 µM.

With `CC(Oc1cc(-c2cnn(C3CN(CC(N)=O)C3)c2)cnc1N)c1c(Cl)ccc(F)c1Cl` (stereo not shown) [Example 109, 2-[3-(4-{6-amino-5-[1-(2,6-dichloro-3-fluorophenyl)ethoxy]pyridin-3-yl}1H-pyrazol-1-yl)azetidin-1-yl]acetamide], the Ki (read-out: c-Met Ki) stood at 0.021 µM.

Consider `CC(Oc1cc(-c2ccn(C3CCNCC3)n2)cnc1N)c1c(Cl)ccc(F)c1Cl` (stereo not shown) [Example 75, 3-[1-(2,6-Dichloro-3-fluoro-phenyl)-ethoxy]-5-(1-piperidin-4-yl-1H-pyrazol-3-yl)-pyridin-2-ylamine], for which, under “read-out: c-Met Ki”, the Ki is 0.038 µM.

With `COCCNC(=O)C(C)(C)n1cc(-c2cnc(N)c(OC(C)c3c(Cl)ccc(F)c3Cl)c2)cn1` (stereo not shown) [Example 34, 2-(4-{6-Amino-5-[1-(2,6-dichloro-3-fluoro-phenyl)-ethoxy]-pyridin-3-yl}-pyrazol-1-yl)-N-(2-methoxy-ethyl)-isobutyramide], the Ki (read-out: c-Met Ki) was found to be 0.09 µM.

As to `CC(Oc1cc(-c2cnn(CC3CN(CC4CC4)C3)c2)cnc1N)c1c(Cl)ccc(F)c1Cl` (stereo not shown) [Example 112, 5-(1-{[1-(cyclopropylmethyl)azetidin-3-yl]methyl}1H-pyrazol-4-yl)-3-[1-(2,6-dichloro-3-fluorophenyl)ethoxy]pyridin-2-amine], the Ki (read-out: c-Met Ki) was found to be 0.047 µM.

For `CC(Oc1cc(-c2cnn(C3CN(S(C)(=O)=O)C3)c2)cnc1N)c1c(Cl)ccc(F)c1Cl` (stereo not shown) [Example 104, 3-[1-(2,6-dichloro-3-fluorophenyl)ethoxy]-5-{1-[1-(methylsulfonyl)azetidin-3-yl]-1H-pyrazol-4-yl}pyridin-2-amine], under “read-out: c-Met Ki”, the Ki was determined as 0.036 µM.

As to `Cc1[nH]ncc1-c1cnc(N)c(OC(C)c2c(Cl)ccc(F)c2Cl)c1` (stereo not shown) [Example 14, 3-[1-(2,6-Dichloro-3-fluoro-phenyl)-ethoxy]-5-(5-methyl-1H-pyrazol-4-yl)-pyridin-2-ylamine], the Ki (read-out: c-Met Ki) is 0.7 µM.

Take `CC(Oc1cc(-c2cnn(CCN3CCNCC3)c2)cnc1N)c1c(Cl)ccc(F)c1Cl` (stereo not shown) [Example 82, 3-[1-(2,6-Dichloro-3-fluoro-phenyl)-ethoxy]-5-[1-(2-piperazin-1-yl-ethyl)-1H-pyrazol-4-yl]-pyridin-2-ylamine]: the Ki (read-out: c-Met Ki) was 0.047 µM.

As for `C[C@@H](Oc1nc(-c2cnn(C3CCN(C(=O)CO)CC3)c2)cnc1N)c1c(Cl)ccc(F)c1Cl` [Example 68, 1-[4-(4-{5-Amino-6-[(R)-1-(2,6-dichloro-3-fluoro-phenyl)-ethoxy]-pyrazin-2-yl}-pyrazol-1-yl)-piperidin-1-yl]-2-hydroxy-ethanone], the Ki (read-out: c-Met Ki) was found to be 0.015 µM.

In the case of `CC(Oc1cc(-c2cnn(C3CN(C(=O)CO)C3)c2)cnc1N)c1c(Cl)ccc(F)c1Cl` (stereo not shown) [Example 105, 2-[3-(4-{6-amino-5-[1-(2,6-dichloro-3-fluorophenyl)ethoxy]pyridin-3-yl}1H-pyrazol-1-yl)azetidin-1-yl]-2-oxoethanol], the Ki (read-out: c-Met Ki) worked out at 0.022 µM.

As for `CC(Oc1cc(-c2cnn(C3CCNCC3)c2)cnc1N)c1c(Cl)c(F)cc(N(C)C)c1Cl` (stereo not shown) [Example 150, 3-[1-(2,6-Dichloro-3-dimethylamino-5-fluoro-phenyl)-ethoxy]-5-(1-piperidin-4-yl-1H-pyrazol-4-yl)-pyridin-2-ylamine], the Ki (read-out: Met Ki) is 0.163 µM.

Broadly, the Ki is the equilibrium dissociation constant of an inhibitor or competing ligand from its target.
